Results from patent publication US7371730B2, “Crystals of glucopyranosyloxybenzyl benzene derivative” (Kissei Pharmaceutical Co., Ltd., priority 2002, dated 2008).

Assay: Stability test (storage; HPLC residual percentage and X-ray powder diffraction)
Format: physicochemical
Conditions: storage 40° C./75% RH, 2 months, stopper tightly, and 60° C.
Protocol: Stability tests were carried out under the following conditions for crystalline forms α and β. Residual percentages of test substances were determined by HPLC, and changes in crystalline form were examined by X-ray powder diffraction analysis.
• detection; 225 nm • column; Inertsil ODS-3 • column temperature; 30° C. • mobile phase; 0.02 mol/L phosphate buffer (pH 3.0): acetonitrile=58:42→30:70 • flow rate; 1.0 mL/min. Storage conditions: • 1) 40° C./75% RH, 2 months, stopper tightly • 2) 60° C., 2 months, stopper tightly

## CCOC(=O)OC[C@H]1O[C@@H](Oc2ccccc2Cc2ccc(OC)cc2)[C@H](O)[C@@H](O)[C@@H]1O [crystalline form α, 2-(4-methoxybenzyl)phenyl 6-O-ethoxycarbonyl-β-D-glucopyranoside]
  changes in crystalline form (X-ray powder diffraction analysis): no change
  residual percentage of test substance (HPLC): no change
